Where two headings read alike, the source gives them in different places.

Among the data in patent US20030065039A1, “Biologically active 1,3-bis-aromatic-prop-2-en-1-ones, 1,3-bis-aromatic-propan-1-ones, and 1,3-bis-aromatic-prop-2-yn-1-ones” (Statens Serum Institute, priority 1997, published 2003) are IC50 values, retold here.

Holding throughout (format): cell-based
The test system of assay [1] is Plasmodium falciparum. The assay is described as follows: Plasmodium falciparum Assay. The settings on record: 3-H-hypoxanthine incorporation, 48 hours, read-out: Plasmodium IC50 ± SD. As to the method: The experiments in which compounds were tested for their ability to inhibit parasite growth were performed by a modification of the method originally described by Jensen et al. (1982). 50 μl of parasitized erythrocytes (parasitemia approximately 1%) in a concentration of 5×10^8/ml and 50 μl of RPMI medium containing different concentrations of the test compound was added to each well of a 96 well flat-bottomed microtiter plate. The cultures were then incubated for 48 hours, 24 hours before termination of the culture adding 20 μl of 3-H-hypoxanthine (40 uCi/ml) was added to each well. The cultures were then harvested onto glass fiber filters using a Skatron cell harvester, and the incorporation of 3-H-hypoxanthine into the DNA of dividing parasites was determined by liquid scintillation spectrometry. Control cultures with uninfected erythrocytes and infected erythrocytes in RPMI medium without test compounds were always performed in parallel to the test cultures. In some experiments thin smears of parasite cultures were stained by Giemsa and examined under microscope (×1000). The test compounds described above, were diluted in RPMI medium immediately before use. In the experiments, chloroquine phosphate was used as a positive control as a drug known to inhibit parasite growth.

For assay [2], the system named is Leishmania promastigotes. As to the kind of experiment: Leishmania promastigotes Assay. The conditions noted are these: promastigotes, 3H-thymidine uptake, read-out: Leishmania IC50 ± SD. As to the method: A WHO reference vaccine strain of L. major originally isolated from a patient in Iran and a Kenyan strain of L. donovani (MHOM(/KE/85/NLB 274) were cultured in medium 199 containing 0.02 mg/ml gentamycin, 25 mM Hepes, 4 mM L-glutamine, and 20% heat inactivated fetal calf serum (FCS). Incubation was carried out at 26° C. Promastigotes were harvested on day 3 and 6 of the culture and used for the parasite growth inhibition.
The effect of the test compounds on promastigotes was assessed by a method similar to the one described by Pearson et al., by incubating promastigotes (3×10^6/ml) at 26° C. for 2 hrs in the presence of a given compound or the medium alone in 96 wells flat bottom microtiter plates. Following incubation, 100 μCi of 3H-thymidine was added to each well and further incubated for 18 hrs. Promastigotes were then harvested on filter paper by means of a cell harvester, extensively washed with distilled water and counted in a scintillation counter. The promastigotes were also counted microscopically and their flagellar motility was assessed.

The test system of assay [3] is human lymphocytes. The assay is described as follows: Lymphocyte Proliferation Assay. The settings on record: PHA provoked proliferation of human lymphocytes, read-out: Lymphocytes IC50 ± SD. As to the method:
Human blood mononuclear cells (BMNC) from heparinized blood were isolated by metrizoate sodium-Ficoll density gradient centrifugation, washed 3 times in RPMI 1640 medium supplemented with 5% FCS and with 400 IU of penicillin plus 400 μg/ml streptomycin. BMNC were resuspended in the medium and cultured in triplicate, 0.63×10^5/ml and 160 μl per vial, in round-bottom microtiter plates with 20 μl of various concentrations of the test compound. Immediately prior to incubation, optimum concentrations of the mitogen phytohaemagglutinin (PHA) and the antigen purified protein derivative of tuberculin (PPD) were added to the cultures in a volume of 20 μl. Unstimulated control cultures were always included. Cultures were incubated for 3 or 7 days. The degree of lymphocyte proliferation was estimated by ^3H-thymidine (1 μCi per well) addition 24 h before the cells were harvested on glass fiber filters by means of a harvesting machine), and ^3H-thymidine incorporation was measured in a liquid scintillation counter. For each set of triplicate values, the median was recorded. Unstimulated cultures were always included as controls.

For `COc1c(/C=C/C(=O)c2ccc(O)cc2)ccc(O)c1C` [2-OCH3-3-methyl-4,4′-OH, 2-methoxy-3-methyl-4,4′-dihydroxychalcone], the half-inhibitory concentration (IC50) in assay [1] (Plasmodium falciparum) was 33 µM; in assay [2] (Leishmania), 22 ± 3 µM; in assay [3] (Lymphocyte) it was 27 ± 4 µM.

As to `COc1ccc(C(=O)/C=C/c2ccc(F)c(F)c2)c(OC)c1` [2′,4′-OCH3-3,4-F], the concentration for half-maximal inhibition (IC50) stood at 10 µM in assay [1], 16 ± 1 µM in assay [2] and 5.3 ± 0.6 µM in assay [3].

For `CCCCCCc1cc(/C=C/C(=O)c2ccc(O)cc2)c(OC)cc1O` [2-OCH3-4,4′-OH-5-hexyl, 2-methoxy-4,4′-dihydroxy-5-hexylchalcone], the IC50 in assay [1] (Plasmodium falciparum) was found to be 5.1 µM; in assay [2] (Leishmania), 9.7 ± 0.9 µM; in assay [3] (Lymphocyte), 46 ± 3 µM.

As for `C=CCOc1ccc(C(=O)/C=C/c2cccc(OC)c2OC)cc1` [2,3-OCH3-4′-allyloxy], the half-inhibitory concentration (IC50) is 26 µM in assay [1], 49 ± 3 µM in assay [2] and 96 ± 6 µM in assay [3].

As for `COc1cc(/C=C/C(=O)c2ccc(O)cc2)cc(OC)c1` [3,5-OCH3-4′-OH], the half-maximal inhibitory concentration (IC50) is 25 µM in assay [1], 12 ± 1 µM in assay [2] and 14 ± 1 µM in assay [3].

With `COc1ccc(/C=C/C(=O)c2ccc(OC)cc2)cc1` [4′,4-OCH3], the half-maximal inhibitory concentration (IC50) in assay [1] is 51 µM; in assay [2], 106 ± 9 µM; in assay [3] it was 112 ± 8 µM.

On to `COc1c(/C=C/C(=O)c2ccc(O)cc2)ccc(O)c1CC=C(C)C` [Licochalcone C, 2-methoxy-3-(3-methyl-2-butenyl)-4,4′-dihydroxychalcone], for which the results for the IC50 in assay [1] (Plasmodium falciparum), in assay [2] (Leishmania) and in assay [3] (Lymphocyte) were 16 µM, 55 ± 3 µM and 53 ± 2 µM, respectively.

On to `CCCc1cc(/C=C/C(=O)c2ccc(O)cc2)c(OC)cc1O` [2-OCH3-4,4′-OH-5-propyl, 2-methoxy-4,4′-dihydroxy-5-propylchalcone], for which the results for the IC50 in assay [1] (Plasmodium falciparum), in assay [2] (Leishmania) and in assay [3] (Lymphocyte) were 10 µM, 26 ± 2 µM and 41 ± 3 µM, respectively.

Consider `COc1ccc(C(=O)/C=C/c2ccc(N(C)C)cc2)c(OC)c1OC` [4-N(CH3)2-2′,3′,4′-OCH3, 4-dimethylamino-2′,3′,4′-trimethoxychalcone], for which the IC50 worked out at 22 µM in assay [1] (Plasmodium falciparum), 21 ± 2 µM in assay [2] (Leishmania) and 35 ± 2 µM in assay [3] (Lymphocyte).

Regarding `COc1ccc(C(=O)/C=C/c2ccc(Cl)cc2Cl)c(OC)c1OC` [2′,3′,4′-OCH3-2,4-Cl], the results for the concentration for half-maximal inhibition (IC50) in assay [1], in assay [2] and in assay [3] were 7.9 µM, 6.3 ± 0.6 µM and 7.8 ± 0.9 µM, respectively.

For `COc1cc(/C=C/C(=O)c2ccc(O)cc2O)ccc1O` [2′,4′,4-OH-3-OCH3], the IC50 in assay [1] amounted to 43 µM; in assay [2] it was 16 ± 2 µM; in assay [3], 31 ± 2 µM.

Usually IC50 stands for the concentration needed to halve the response being measured.
